The values that follow come from patent publication US9274101B2 (BIOLOG, Inc., priority 2001, dated 2016).

Common to all, as to format: cell-based, human
For one assay, the system named is HepG2 cells. Description: HepG2 cells on flat bottom plastic wells, energy sources at a range of concentrations. The procedure: In this Example, methods for testing adherent cells for their ability to use multiple carbon sources are described. The human hepatocellular carcinoma cell line known as HepG2 (Knowles et al., Science, 209:497-499 [1980]) was chosen for this experiment. However, this application is not intended to be limited to the use of HepG2 cells, hepatocytes, carcinoma cells or even human cells.
HepG2 cells were grown in Falcon tissue culture flasks with vented tops. The culture medium used was Minimal Essential medium (MEM, Invitrogen 11095) with 1 g/L glucose, 2 mM L-glutamine, 2.2 g/L sodium bicarbonate, 10 mg/L phenol red, and supplemented with 0.1 mM Nonessential Amino Acids, 1 mM sodium pyruvate, 50 U/mL penicillin, 50 μg/mL streptomycin, and 10% (v/v) heat inactivated fetal bovine serum (HI FBS, Invitrogen 16140). The cells were seeded at 2×10^4/cm^2 and used 3 days after initiation of culture. During all incubations, the cells were kept in an atmosphere of 5% CO2, 90-100% humidity, and 37° C. Cells were harvested by trypsinization for 3 minutes in 0.25% trypsin-1 mM EDTA and resuspended in an equal volume of culture medium. A viable cell count was obtained by trypan blue exclusion and an appropriate volume of the cell suspension (to have 33% more viable cells than was sufficient for the experiment) was placed in a polypropylene centrifuge tube. Cells were pelleted by centrifugation at 350×g for 10 minutes at room temperature, resuspended in Dulbecco's Phosphate Buffered Saline (D-PBS, Invitrogen 14040) and centrifuged a second time. Cells were then resuspended to two-thirds the final volume needed in Dulbecco' ? s Modified Eagle's Medium (DME, Sigma D5030) containing 10% HI FBS and penicillin-streptomycin but without glucose, L-glutamine, sodium pyruvate, and phenol red. An aliquot was counted by trypan blue exclusion and the cell density was adjusted to 1.28×10^5/mL. Cells were plated in 100 μL/well in wells of standard, 96-well plates (4×10^4 cells/cm^2) and allowed to adhere overnight prior to addition of test chemicals.
For assay, the culture medium was aspirated, the wells were washed once with D-PBS and 170 μL of DME were added to each well, followed by 30 μL of the appropriate dilution of each test energy source. Stocks of 133 mM of each test chemical were prepared in tissue culture grade water, sterile filtered, and dilutions were prepared in a master plate so that, upon dilution into a regular 96-well MICROPLATE a total well volume of 200 μL, the final concentrations would be 0.033 to 20 mM. Negative control wells received 30 μL of tissue culture grade water. For each plate containing energy sources and cells, a second, control plate containing only energy sources was prepared. Plates were incubated at 5% CO2, 90-100% humidity, and 37° C. for 48 to 72 hours prior to addition of the MTS/PMS colorometric reagent (10 μL/well). The color formed in each well 4-24 hours after addition of the calorimetric reagent, was measured with a plate reader at 490 nm with a reference wavelength of 650 nm. OD values from the control plate were subtracted from the OD values obtained with cells prior to normalizing the data to % negative control (cells without added energy source).

Assay [1] relates to Undifferentiated HL-60 cells. Description: Energy use by undifferentiated HL-60 cells.
In the next assay the test system is HL-60 cells. Description: Effect of 1 mM chloramphenicol on HL-60 energy utilization. The note with it: negative control without chloramphenicol. On the procedure: In this Example, methods for testing antimicrobial-induced modulation in growth of a cell are described. The antimicrobial selected for this Example is chloramphenicol. However, this application is not intended to be limited to the use of chloramphenicol, translation inhibitors or even antibiotics. HL-60 cells were cultured as described in Example 27.
After washing, HL-60 cells were resuspended in DME-R. An aliquot of the cell suspension was counted by trypan blue exclusion and the cell density was adjusted to 6.67×10^5[…]. Fifty μL of DME-R containing 3 mM chloramphenicol were added to each well of the appropriate number of half area, 96-well plates, followed by 25 μL of the appropriate dilution of each test energy source. Stocks of 133 mM of each test chemical were prepared in tissue culture grade water, sterile filtered, and dilutions were prepared in a master plate so that, upon dilution in a total volume of 150 μL, the final concentrations would be 0.033 to 20 mM. Negative control wells received 25 μL of tissue culture grade water. The cells were plated at a volume of 75 μL/well, giving a final cell density of 5×10^4/well. For each plate containing energy sources and cells, a second, control plate containing only energy sources was prepared. Plates were incubated at 5% CO2, 90-100% humidity, and 37° C. for 24 hours prior to addition of the MTS/MPMS colorimetric reagent (7.5 μL/well). The color formed in each well 24 hours after addition of the colorimetric reagent, was measured with a plate reader at 490 nm with a reference wavelength of 650 nm. OD values from the control plate were subtracted from the OD values obtained with cells prior to normalizing the data to % negative control.
Data shown in Table 25 are expressed as percent negative control without chloramphenicol. […] Chloramphenicol clearly has a different effect on the cells than citrate shown in Example 33.

As for `O=C1O[C@H]([C@@H](O)CO)[C@@H](O)[C@@H]1O` [L-gal acid g-lactone], the “HepG2 Cells Responses After 72 hours in Culture and a 4 hour Color Development Period” value in the assay on HepG2 cells (Conc. 0.03 mM) was 121.2 % of negative control; in the assay with HepG2 cells (Conc. 0.10 mM) it was 127.4 % of negative control; in the assay on HepG2 cells (Conc. 0.33 mM) it was 196.4 % of negative control; in the assay on HepG2 cells (Conc. 1.00 mM), 164.1 % of negative control; in the assay with HepG2 cells (Conc. 3.3 mM) it was 172.8 % of negative control; in the assay with HepG2 cells (Conc. 10 mM) it was 181.5 % of negative control. Moreover, the “HepG2 Cells Responses After 72 hours in Culture and a 4 hour Color Development Period” value in the assay on HepG2 cells (Conc. 15 mM) is recorded as 215.1 % of negative control; in the assay on HepG2 cells (Conc. 20 mM), 231.2 % of negative control. Further, the “Energy Use by Undifferentiated HL-60 Cells” value in assay [1] (Conc. 0.03 mM) is 117.0 % of negative control; in assay [1] (Conc. 0.10 mM), 125.9 % of negative control; in assay [1] (Conc. 0.33 mM) it was 132.9 % of negative control; in assay [1] (Conc. 1.00 mM), 137.0 % of negative control; in assay [1] (Conc. 3.3 mM), 160.8 % of negative control; in assay [1] (Conc. 10 mM), 153.0 % of negative control. The figures for the “Energy Use by Undifferentiated HL-60 Cells” value in assay [1] (Conc. 15 mM) and in assay [1] (Conc. 20 mM) were 163.4 % of negative control and 126.2 % of negative control, respectively. Also, the “Effect of 1 mM chloramphenicol on HL-60 Energy Utilization” value in the assay with HL-60 cells (energy source 0.03 mM with 1 mM chloramphenicol) is on record as −2.0 % of negative control; in the assay with HL-60 cells (energy source 0.10 mM with 1 mM chloramphenicol), −8.4 % of negative control; with HL-60 cells (energy source 0.33 mM with 1 mM chloramphenicol), 4.3 % of negative control; in the assay on HL-60 cells (energy source 1.00 mM with 1 mM chloramphenicol), −13.9 % of negative control; with HL-60 cells (energy source 3.3 mM with 1 mM chloramphenicol) it was 3.7 % of negative control; in the assay on HL-60 cells (energy source 10 mM with 1 mM chloramphenicol) it was 14.5 % of negative control. Also, the “Effect of 1 mM chloramphenicol on HL-60 Energy Utilization” value is listed as 18.0 % of negative control in the assay with HL-60 cells (energy source 15 mM with 1 mM chloramphenicol) and 2.4 % of negative control in the assay on HL-60 cells (energy source 20 mM with 1 mM chloramphenicol).
